Experimental findings from patent US12612408B2, “Pyrazolone-fused pyrimidine compound, preparation method for same and applications thereof” (SHANGHAI PHARMACEUTICALS HOLDING CO., LTD., priority 2019, dated 2026) are described below.

The target in the test is T1, WEE1 kinase (Homo sapiens, UniProt P30291).
T1 construct: purchased CarnaBiosciences, Inc. 05-177
As to the kind of experiment: Inhibitory effect of compound on WEE1 kinase in vitro (ELISA). The test is classed as biochemical. As to conditions: ATP concentration of Km. Here is the method:
The tested compounds were screened on WEE1 kinase with ATP concentration of Km by ELISA. Compounds were screened on WEE1 kinase to evaluate the kinase inhibitory activity of the tested compounds. In the detection process, the initial concentration of the tested compounds was all selected as 100 nM, and each compound was selected with 6 gradient dilution concentrations, the gradient dilution ratio was 4-fold, and two replicate wells were detected for each concentration, MK1775 was used as the standard control.
WEE1, purchased from CarnaBiosciences, Inc., Item No. 05-177; dimethyl sulfoxide, purchased from Sigma-Aldrich, Item No. D8418; ATP, purchased from Sigma-Aldrich, Item No. A7699; DTT solution, purchased from Sigma-Aldrich, Item No. 43816; protein tyrosine kinase (PTK) substrate (poly-Glu-Tyr), purchased from Sigma-Aldrich, Item No. P4476; P-Tyr (PY99), purchased from Santa Cruz, Item No. sc-7020; Anti-mouse IgG HRP-linked Antibody, purchased from Santa Cruz, Item No. 7076S; TMB liquid Substrate System, purchased from Sigma-Aldrich, Item No. T0440; Costar Stripwell Microplate No Lid 1×8 Flat Bottom, Certified High Binding, purchased from Sigma-Aldrich, Item No. 42592; 96-well compound plate, purchased from Thermo Scientific, Item No. 267245.
• 1. Coating substrate: 1) An appropriate volume of substrate storage solution protein tyrosine kinase (PTK) substrate (poly-Glu-Tyr) was taken, diluted 10 times with PBS, and the concentration was diluted from […]. The mixture was added to a high adsorption 96-well plate at 125 μL per well. The plate was placed in an incubator at 37° C. for overnight coating. 2) After 24 hours, the 96-well plate was taken out, the liquid in the 96-well plate was poured out, cleaned with washing buffer for 3 times, and the incubator at 37° C. was inverted and dried for 2 hours. • 2. Compound preparation and transfer: 1) compound dilution: 10 mM of the test compound storage solution was taken, the compound in 96-well compound plate was diluted with DMSO in multiple steps to obtain the initial concentration of 100× compound as the first concentration, and then DMSO was used for 4-fold gradient dilution, for a total of 6 concentrations; after that, 2 μL of the gradient dilution solution was added to 48 μL of 1× reaction buffer respectively to prepare 4× compound; 2) 4× compounds were transferred: 10 μL of 4× compounds from the 96-well compound plate configured in the previous step were transferred into the dried high adsorption 96-well plate; 10 μL of the following liquids were added to the compound-free control wells and ATP-control wells: 2 μL of DMSO was added to 48 μL of 1× reaction buffer. • 3. Enzyme reaction stage: 1) WEE1 kinase and ATP were prepared into 2× enzyme solution and 4×ATP solution respectively with 1× reaction buffer. In this screening, the final concentration of WEE1 kinase was: 0.15 ng/μL and the final concentration of ATP was: […]; 2) 20 μL of enzyme solution of 2 was added to the high adsorption 96-well plate; 3) 10 μL of 4×ATP solution was added to the high adsorption 96-well plate and 10 μL of 1× reaction buffer was added to the ATP-control group; 4) the plate was placed in HERAEUS Multifuge X1R centrifuge at 2000 rpm for 20 s and then placed at room temperature and reacted for 60 min. • 4. Reaction termination stage: 1) the reaction mixture in the plate was poured out, 200 μL of washing buffer was added to each well, and washed for 5 times; the primary antibody P-Tyr (PY99) (dilution ratio 1:2000) was added, 100 μL per well, at room temperature for 30 min. 2) The primary antibody in the plate was poured out, 200 μL of washing buffer was added to each well, and washed for 5 times; the second antibody Anti-mouse IgG HRP-linked Antibody (dilution ratio 1:2000) was added, 100 μL per well, at room temperature for 30 min.
A general note: In an ELISA, binding on a coated surface is turned into a signal by an enzyme label.

T1 sequence (P30291 whole entry): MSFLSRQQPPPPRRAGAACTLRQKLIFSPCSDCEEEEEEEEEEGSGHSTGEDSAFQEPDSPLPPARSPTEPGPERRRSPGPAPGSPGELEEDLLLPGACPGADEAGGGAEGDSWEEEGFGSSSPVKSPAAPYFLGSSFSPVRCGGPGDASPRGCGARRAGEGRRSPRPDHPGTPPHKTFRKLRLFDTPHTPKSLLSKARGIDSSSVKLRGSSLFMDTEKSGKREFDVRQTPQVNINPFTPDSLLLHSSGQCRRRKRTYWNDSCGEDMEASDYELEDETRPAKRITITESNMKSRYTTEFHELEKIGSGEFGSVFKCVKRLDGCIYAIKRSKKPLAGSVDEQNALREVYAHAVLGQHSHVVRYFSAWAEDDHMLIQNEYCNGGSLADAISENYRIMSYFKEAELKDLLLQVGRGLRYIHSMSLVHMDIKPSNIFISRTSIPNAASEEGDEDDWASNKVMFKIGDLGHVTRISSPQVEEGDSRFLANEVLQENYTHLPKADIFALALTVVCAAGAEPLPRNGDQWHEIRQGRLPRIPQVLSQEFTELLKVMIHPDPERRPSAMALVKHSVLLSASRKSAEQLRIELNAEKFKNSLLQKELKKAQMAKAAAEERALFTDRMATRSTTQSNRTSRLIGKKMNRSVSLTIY

`C=CCn1c(=O)c2cnc(Nc3ccc(C4CCC(C(=O)OCC)CC4)cc3)nc2n1-c1cccc(C2(O)COC2)n1` (centres unmarked) [Compound I-39]: the IC50 was determined as 2.08 nM.
Take `C=CCn1c(=O)c2cnc(Nc3ccc(C4CCC(C(=O)O)CC4)cc3)nc2n1-c1cccc(C2(O)COC2)n1` (centres unmarked) [Compound I-40]: the midpoint of inhibition, the IC50, lay at 4.58 nM.
For the compound `C=CCn1c(=O)c2cnc(Nc3ccc(C4CCC(C(=O)O)CC4)cc3)nc2n1-c1cccc(C(C)(C)O)n1` (centres unmarked) [Compound I-5, 4-(4-((2-allyl-1-(6-(2-hydroxypropan-2-yl)pyridin-2-yl)-3-oxo-2,3-dihydro-1H-pyrazolo[3,4-d]pyrimidin-6-yl)amino)phenyl)cyclohexane-1-carboxylic acid], the midpoint of inhibition, the IC50, lay at 7.15 nM.
For `C=CCn1c(=O)c2cnc(Nc3ccc(C4CCC(NC)CC4)cc3)nc2n1-c1cccc(C2(O)COC2)n1` (centres unmarked) [Compound I-33] the value was 4.22 nM.
For the compound `C=CCn1c(=O)c2cnc(Nc3ccc(C4CCC(N5CCC5)CC4)cc3)nc2n1-c1cccc(C(C)(C)O)n1` (single isomer, unassigned) [Compound I-8-2], it took 3.52 nM to reach half-maximal inhibition (IC50).
As to `C=CCn1c(=O)c2cnc(Nc3ccc(C4CCC(N(C)C)CC4)cc3)nc2n1-c1cccc(C(C)(C)O)n1` (single isomer, unassigned) [Compound I-1-2], 2.08 nM corresponded to half-maximal inhibition (IC50).
Consider `C=CCn1c(=O)c2cnc(Nc3ccc(C4CCC(N(C)C)CC4)cc3)nc2n1-c1cccc(C2(O)COC2)n1` (single isomer, unassigned) [Compound I-15-1], for which the midpoint of inhibition, the IC50, lay at 1.52 nM.
For `C=CCn1c(=O)c2cnc(Nc3ccc(C4CCC(N5CCCC5)CC4)cc3)nc2n1-c1cccc(C(C)(C)O)n1` (single isomer, unassigned) [Compound I-3-2] the value was 0.66 nM.
For the compound `C=CCn1c(=O)c2cnc(Nc3ccc(C4CCC(C#N)CC4)cc3)nc2n1-c1cccc(C(C)(C)O)n1` (centres unmarked) [Compound I-23], the IC50 came out at 0.71 nM.
For `C=CCn1c(=O)c2cnc(Nc3ccc(C4CCC(=NOC)CC4)cc3)nc2n1-c1cccc(C(C)(C)O)n1` (centres unmarked) [Compound I-32] the value was 7.39 nM.
For `C=CCn1c(=O)c2cnc(Nc3ccc(C4CCC(N5CCOCC5)CC4)cc3)nc2n1-c1cccc(C(C)(C)O)n1` (centres unmarked) [Compound I-2] the value was 2.57 nM; for `C=CCn1c(=O)c2cnc(Nc3ccc(C4CCC(N(C)C)CC4)cc3)nc2n1-c1cccc(C2(O)COC2)n1` (single isomer, unassigned) [Compound I-15-2], 1.68 nM.
Turning to `C=CCn1c(=O)c2cnc(Nc3ccc(C4CCC(N(C)C(=O)C5CC5)CC4)cc3)nc2n1-c1cccc(C2(O)COC2)n1` (centres unmarked) [Compound I-34], the IC50 came to 3.3 nM.
On to `C=CCn1c(=O)c2cnc(Nc3ccc(C4CCC(C(=O)N5CCC5)CC4)cc3)nc2n1-c1cccc(C(C)(C)O)n1` (centres unmarked) [Compound I-7], for which the IC50 worked out at 6.53 nM.
In turn, `C=CCn1c(=O)c2cnc(Nc3ccc(C4CCC(N5CCC5)CC4)cc3)nc2n1-c1cccc(C2(O)COC2)n1` (single isomer, unassigned) [Compound I-36-2] gave an IC50 of 2.92 nM.
`C=CCn1c(=O)c2cnc(Nc3ccc(C4CCC(NC(=N)N)CC4)cc3)nc2n1-c1cccc(C(C)(C)O)n1` (centres unmarked) [Compound I-20] yielded an IC50 of 3.45 nM.
Consider `C=CCn1c(=O)c2cnc(Nc3ccc(C4CCC(N5CCCC5)CC4)cc3)nc2n1-c1cccc(C(C)(C)O)n1` (single isomer, unassigned) [Compound I-3-1], for which the IC50 was found to be 0.35 nM.

By IC50 is commonly meant the concentration that inhibits the measured activity by half.
